Reference: patent US20240238299A1, “USE OF PYRROLOPYRIMIDINE COMPOUND” (GUANGZHOU JOYO PHARMATECH CO., LTD, priority 2021, published 2024)
pIC50: −log10 of the molar value.

Legend:
[1] = tested on: IL-2-induced pSTAT5 in hPBMC; experiment: IL-2-induced pSTAT5 in hPBMC (flow cytometry, CD4 positive cells); format: cell-based; details: Homo sapiens, 4 ng/mL IL-2, CD4 positive cells
Experimental: • 1) Preparation of culture medium: 1640 medium+10% fetal bovine serum+1% penicillin/streptomycin+1% non-essential amino acids (all percentages were v/v) • 2) Cells were thawed in a 37° C. water bath and then centrifuged. The cell concentration was adjusted to 5×10^5 cells/mL using the prepared culture medium. • 3) Cell suspension was seeded into a 96-well round-bottom plate at 200 μL/well and incubated at 37° C. for 90 minutes. • 4) Drugs were added, followed by a 37° C. incubation for 30 minutes. • 5) Cells were then stimulated by adding 10 ng/mL of IL-6 or 4 ng/mL of IL-2, followed by a 37° C. incubation for 15 minutes.
• 1) After completing the stimulation, cells were centrifuged and washed once with staining buffer (DPBS+2% bovine serum albumin). Antibodies were then added for a 30-minute staining process at 4° C. […]
• 1) Response %=[(MFI value of drug-treated well−mean MFI value of control well)/(mean MFI value of DMSO well−mean MFI value of control well)]*100% was calculated. • 2) The calculated Response % values were input into GraphPad Prism 8 software. […]

rat primary astrocytes = experiment: Cell viability (CCK-8) in NMO-IgG induced astrocyte injury model; format: cell-based
[2] = tested on: IL-6 secretion by astrocytes; experiment: IL-6 release caused by NMO-IgG in astrocytes (ELISA); format: cell-based, rat; details: Rattus norvegicus, Astrocyte, 24 h, NMO-IgG 250 μg/mL, read-out: IL-6 inhibition rate, Mean
Experimental: The compound was dissolved in DMSO to prepare a compound stock solution. The compound stock solution was then serially diluted in a gradient using DMSO to prepare a series of 1000× test compound solutions. These 1000× test compound solutions were further diluted at a ratio of 1:100 with cell culture medium to prepare a series of 10× test compound solutions. Finally, according to the experimental well plate loading design, a corresponding volume of 10× solution was added to each well, with two duplicate wells for each drug concentration. In the experiment, the test solution (i.e., 1× solution) had varying final concentrations of compound I, specifically 20, 2.222, 0.247, and 0.027 μM; the concentration of Meprednisone compound (i.e., 1× solution) was 30 μM; the concentration of BAY 11-7082 (i.e., 1× solution) was 5 μM; the final DMSO concentration in each well was 0.1%. DMSO without compound was added to blank control wells, with a final concentration of 0.1%.
1) Extraction and separation of primary astrocytes: A mixed glial cell culture medium was prepared from the cerebral cortex of 1-day-old newborn rats. After euthanizing the newborn rats, they were immersed in alcohol. Their skin was cut, the brains were removed, and the cerebral cortex was isolated. The tissues were then ground to remove the connective tissue, and the mixed glial cells were sieved through a 70 µm cell strainer. These cells were then seeded into a cell culture plate coated with poly-L-lysine. The culture medium was DMEM, containing 10% heat-inactivated fetal bovine serum, 100 U/mL penicillin, and […]. After about 12 days of in vitro culture, the cells reached confluence. Microglia, endothelial cells, and oligodendrocytes were removed from the mixed glial cells by vibratory shaking. […] 2) Culture of astrocytes: The isolated astrocytes were cultured in a 37° C., 5% CO2 incubator. The culture medium was changed every 3 to 4 days. The astrocytes could also be digested using trypsin (0.25%) and then frozen in liquid nitrogen for future use.
Human NMO-IgG was isolated from a sterile-filtered serum pool (AQP4-IgG-positive NMOSD) using a HiTrap Protein G-HP column (GE Healthcare). The serum samples were diluted at a ratio of 1:1 with binding buffer, and after packing the purification column with binding buffer, the serum sample was added. The column was subsequently washed with binding buffer again and the antibodies were eluted according to the instructions. Finally, the antibodies were concentrated on an Amicon Ultra-4 centrifugal filter (millipore) with a 10,000 MW cutoff. The concentrated immunoglobulin was filtered through a 0.22 µm filter. The protein concentration of the concentrate was determined using the BCA method and stored at −80° C. The total IgG extracted from the serum of NMOSD patients was NMO-IgG (containing AQP4-IgG), and the cells were stimulated at a protein concentration of 250 μg/mL during the experiment.
Astrocytes were cultured or revived until day 2 and then seeded into a 24-well plate at a density of 1.5×10^5 cells per well. The test compounds, including compound I, Meprednisone, and BAY11-7082, were pre-incubated with the cells for 30 minutes at the concentrations previously described. Subsequently, in each group, the cells continued to be stimulated with NMO-IgG at a final working concentration of 250 μg/mL for 24 hours to induce astrocyte damage. Normal human Control-IgG (CON-IgG) stimulation at a final working concentration of 250 μg/mL was used as a negative control.
After 24 hours of NMO-IgG stimulation of cells, the supernatant was collected. IL-6 levels were detected using an enzyme-linked immunosorbent assay (ELISA) following the instructions of the IL-6 ELISA kit (R&D Systems, USA, #RD6000B). The absorbance (OD values) of the samples in each group was measured, and the concentration of IL-6 in each experimental group was calculated through standard curve fitting. […]

[3] = Rattus norvegicus, Astrocyte, 24 h, read-out: Cell viability percentage, Mean

pIC50 [1]: 7.44
SMILES: CN(c1ncnc2[nH]ccc12)[C@@H]1CCc2cc(C#N)nn2C1 [Compound I]
inhibitory effect on cell viability (rat primary astrocytes; 24 h co-incubation, highest test concentration 20 μM): no inhibitory effect on cell viability
viability at 0.027 µM (rat primary astrocytes; [3]): 112%
viability at 0.247 µM (rat primary astrocytes; [3]): 105%
viability at 2.222 µM (rat primary astrocytes; [3]): 99.7%
viability at 20 µM (rat primary astrocytes; [3]): 99.4%
inhibition at 0.027 µM ([2]; 0.027 μM): 30.4%
inhibition at 0.247 µM ([2]; 0.247 μM): 54%
inhibition at 2.222 µM ([2]; 2.222 μM): 94.3%
inhibition at 20 µM ([2]; 20 μM): ~98.8%
